Data reported in patent US20210070748A1, “INHIBITORS OF BRUTONS TYROSINE KINASE” (Pharmacyclics LLC, priority 2015, published 2021).

Experiments:
Format in all cases: biochemical
LCK = LCK (Homo sapiens, UniProt P06239); assay: Inhibition of a panel of kinases, in vitro HotSpot kinase assay: LCK; conditions: D-compounds panel data; 1 μM ATP; read-out: IC50 LCK
ITK = biological target: T1, ITK (Homo sapiens, UniProt Q08881); assay: Inhibition of a panel of kinases, in vitro HotSpot kinase assay: ITK; conditions: D-compounds panel data; 1 μM ATP
T1 sequence (Q08881 1-620): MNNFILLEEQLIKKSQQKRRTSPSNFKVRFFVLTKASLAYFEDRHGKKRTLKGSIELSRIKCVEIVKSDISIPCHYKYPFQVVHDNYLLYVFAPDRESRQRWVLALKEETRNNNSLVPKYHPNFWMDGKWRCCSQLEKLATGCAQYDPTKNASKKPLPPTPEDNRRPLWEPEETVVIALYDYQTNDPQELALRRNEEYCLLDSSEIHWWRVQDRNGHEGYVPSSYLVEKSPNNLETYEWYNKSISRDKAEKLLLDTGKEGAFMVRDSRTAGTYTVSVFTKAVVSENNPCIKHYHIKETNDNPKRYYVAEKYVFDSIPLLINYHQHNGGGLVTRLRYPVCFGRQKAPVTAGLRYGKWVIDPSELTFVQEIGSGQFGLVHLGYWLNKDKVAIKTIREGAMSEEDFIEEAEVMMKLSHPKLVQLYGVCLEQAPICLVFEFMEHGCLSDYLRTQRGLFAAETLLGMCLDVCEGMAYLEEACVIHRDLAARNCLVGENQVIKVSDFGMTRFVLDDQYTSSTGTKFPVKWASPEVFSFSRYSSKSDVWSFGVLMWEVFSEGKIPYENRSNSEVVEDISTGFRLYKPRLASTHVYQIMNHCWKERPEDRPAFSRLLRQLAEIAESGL
Description: (§1) The degree of inhibition of a panel of kinases is determined using the in vitro HotSpot kinase assay (purified enzymes, ^33P-ATP, an appropriate substrate and 1 μM ATP).

SRC = SRC (Homo sapiens, UniProt P12931); assay: Inhibition of a panel of kinases, in vitro HotSpot kinase assay: SRC; conditions: D-compounds panel data; 1 μM ATP
Description: as §1

EGFR = EGFR (Homo sapiens, UniProt P00533); assay: Inhibition of a panel of kinases, in vitro HotSpot kinase assay: EGFR; conditions: D-compounds panel data; 1 μM ATP
Description: as §1

BTK-WT = biological target: T2, BTK-WT (Homo sapiens, UniProt Q06187); assay: Btk in vitro inhibitory activity (one of Method A TR-FRET, Method B electrophoretic mobility shift, Method C radiometric filter binding); conditions: D-compounds panel data; read-out: IC50 BTK-WT
T2 construct: purified from insect cells as a full-length construct containing an N-terminal 6X-His tag; His6 (N); made in house; host or cells: insect cells (baculovirus Sf21 in Method B)
T2 sequence (Q06187 whole entry): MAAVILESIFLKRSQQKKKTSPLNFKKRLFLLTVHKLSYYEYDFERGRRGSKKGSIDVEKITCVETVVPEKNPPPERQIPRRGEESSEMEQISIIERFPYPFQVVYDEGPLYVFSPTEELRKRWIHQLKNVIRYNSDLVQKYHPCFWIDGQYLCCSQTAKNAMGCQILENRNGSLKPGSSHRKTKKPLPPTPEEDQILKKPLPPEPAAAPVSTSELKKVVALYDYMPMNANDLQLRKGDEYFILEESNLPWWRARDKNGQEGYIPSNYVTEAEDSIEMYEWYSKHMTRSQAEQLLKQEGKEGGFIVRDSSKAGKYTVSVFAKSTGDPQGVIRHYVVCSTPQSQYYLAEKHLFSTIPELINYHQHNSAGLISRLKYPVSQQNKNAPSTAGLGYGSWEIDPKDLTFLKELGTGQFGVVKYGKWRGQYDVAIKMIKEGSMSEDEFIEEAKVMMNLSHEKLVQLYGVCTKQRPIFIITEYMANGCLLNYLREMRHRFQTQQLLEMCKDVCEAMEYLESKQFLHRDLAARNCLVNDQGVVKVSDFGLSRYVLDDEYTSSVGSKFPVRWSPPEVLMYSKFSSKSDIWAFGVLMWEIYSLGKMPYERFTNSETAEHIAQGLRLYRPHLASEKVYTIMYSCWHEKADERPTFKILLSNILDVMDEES

Chain of LCK (P06239 whole entry): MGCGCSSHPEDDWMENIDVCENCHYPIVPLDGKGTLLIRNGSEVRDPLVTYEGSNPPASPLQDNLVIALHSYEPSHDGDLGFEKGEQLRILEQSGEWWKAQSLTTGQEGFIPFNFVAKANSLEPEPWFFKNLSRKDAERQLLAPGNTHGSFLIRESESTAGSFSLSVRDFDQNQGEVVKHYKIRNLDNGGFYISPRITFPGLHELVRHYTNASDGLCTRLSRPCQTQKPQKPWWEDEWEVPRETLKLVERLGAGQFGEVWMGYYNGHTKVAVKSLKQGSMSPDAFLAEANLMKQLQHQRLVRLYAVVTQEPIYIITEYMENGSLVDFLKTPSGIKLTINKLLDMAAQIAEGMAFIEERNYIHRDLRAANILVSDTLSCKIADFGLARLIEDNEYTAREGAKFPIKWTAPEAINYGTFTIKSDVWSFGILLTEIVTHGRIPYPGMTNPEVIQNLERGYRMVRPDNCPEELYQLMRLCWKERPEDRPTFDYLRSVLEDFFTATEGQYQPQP
Chain of SRC (P12931 whole entry): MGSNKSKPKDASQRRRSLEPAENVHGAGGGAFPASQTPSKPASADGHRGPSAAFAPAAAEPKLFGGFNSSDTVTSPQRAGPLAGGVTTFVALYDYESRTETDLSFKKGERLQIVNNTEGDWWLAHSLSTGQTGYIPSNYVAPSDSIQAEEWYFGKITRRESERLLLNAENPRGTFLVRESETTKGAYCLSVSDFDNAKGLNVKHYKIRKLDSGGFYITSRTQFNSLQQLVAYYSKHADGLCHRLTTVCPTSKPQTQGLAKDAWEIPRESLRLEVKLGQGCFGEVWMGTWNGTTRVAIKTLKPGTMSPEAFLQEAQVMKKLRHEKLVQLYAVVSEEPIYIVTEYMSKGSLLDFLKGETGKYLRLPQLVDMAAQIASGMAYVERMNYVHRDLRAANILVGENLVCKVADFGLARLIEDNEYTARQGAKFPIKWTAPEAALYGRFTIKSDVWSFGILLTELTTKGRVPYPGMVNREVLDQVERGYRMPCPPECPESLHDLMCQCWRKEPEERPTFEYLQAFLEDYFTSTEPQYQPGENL
Chain of EGFR (P00533 25-1210): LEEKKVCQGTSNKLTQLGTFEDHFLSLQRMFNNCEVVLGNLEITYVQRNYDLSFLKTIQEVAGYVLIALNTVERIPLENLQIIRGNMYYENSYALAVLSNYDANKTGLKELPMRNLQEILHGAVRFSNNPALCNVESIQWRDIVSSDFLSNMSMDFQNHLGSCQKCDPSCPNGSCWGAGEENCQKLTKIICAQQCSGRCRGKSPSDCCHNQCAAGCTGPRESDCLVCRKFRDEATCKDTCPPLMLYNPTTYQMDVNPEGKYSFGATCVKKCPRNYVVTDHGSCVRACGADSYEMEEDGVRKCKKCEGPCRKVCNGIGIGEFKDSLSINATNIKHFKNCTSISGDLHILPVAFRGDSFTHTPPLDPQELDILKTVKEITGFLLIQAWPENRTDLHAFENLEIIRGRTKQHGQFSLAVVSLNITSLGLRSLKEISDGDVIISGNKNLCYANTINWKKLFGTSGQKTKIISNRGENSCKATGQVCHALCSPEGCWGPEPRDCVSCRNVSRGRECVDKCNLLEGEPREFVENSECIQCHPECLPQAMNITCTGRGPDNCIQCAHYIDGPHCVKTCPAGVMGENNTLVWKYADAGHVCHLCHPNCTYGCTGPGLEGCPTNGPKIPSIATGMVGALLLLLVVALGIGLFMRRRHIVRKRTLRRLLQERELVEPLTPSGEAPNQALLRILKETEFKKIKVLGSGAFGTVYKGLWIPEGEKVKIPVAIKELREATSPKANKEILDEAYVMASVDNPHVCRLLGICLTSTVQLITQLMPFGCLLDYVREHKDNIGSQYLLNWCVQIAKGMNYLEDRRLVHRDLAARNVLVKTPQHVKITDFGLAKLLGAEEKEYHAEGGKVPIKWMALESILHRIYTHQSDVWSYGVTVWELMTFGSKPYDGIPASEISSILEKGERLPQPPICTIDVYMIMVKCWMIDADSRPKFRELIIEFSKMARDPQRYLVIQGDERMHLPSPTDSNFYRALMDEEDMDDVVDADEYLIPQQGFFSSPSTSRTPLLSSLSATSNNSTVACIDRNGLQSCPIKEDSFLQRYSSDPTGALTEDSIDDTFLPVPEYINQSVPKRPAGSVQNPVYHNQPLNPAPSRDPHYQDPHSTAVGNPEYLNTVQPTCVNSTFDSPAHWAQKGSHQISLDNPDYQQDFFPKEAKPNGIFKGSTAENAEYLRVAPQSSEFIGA

With `C[C@@H]1[C@H](NC(=O)c2ccc(C3CC3)cc2F)CCCN1c1cnc(C(N)=O)c(Nc2ccc3cccnc3c2)n1` [Example D-124, 5-[(2R,3R)-3-(4-cyclopropyl-2-fluorobenzamido)-2-methylpiperidin-1-yl]-3-[(quinolin-7-yl)amino]pyrazine-2-carboxamide] the IC50 (LCK) was greater than 10000 nM, the IC50 (ITK) was greater than 10000 nM and the IC50 (SRC) was greater than 10000 nM. It also gave an IC50 (EGFR) greater than 10000 nM and an IC50 (BTK-WT) of 10 to 100 nM.

With `C[C@@H]1[C@H](NC(=O)c2ccc(C3CC3)cc2F)CCCN1c1cnc(C(N)=O)c(Nc2ccc(CN3CCN(C)CC3)cc2)c1` [Example D-125, 5-[(2R,3R)-3-(4-cyclopropyl-2-fluorobenzamido)-2-methylpiperidin-1-yl]-3-({4-[(4-methylpiperazin-1-yl)methyl]phenyl}amino)pyridine-2-carboxamide] the IC50 (LCK) was 100 to 1000 nM, the IC50 (ITK) was 1000 to 10000 nM and the IC50 (SRC) was 1000 to 10000 nM. For the same compound, the IC50 (EGFR) was greater than 10000 nM and the IC50 (BTK-WT) was no more than 10 nM.

Work on `C[C@@H]1[C@H](NC(=O)c2ccc(C3CC3)cc2F)CCCN1c1cnc(C(N)=O)c(Nc2ccc(N3CCN(C)CC3)cc2)c1` [Example D-126, 5-[(2R,3R)-3-(4-cyclopropyl-2-fluorobenzamido)-2-methylpiperidin-1-yl]-3-{[4-(4-methylpiperazin-1-yl)phenyl]amino}pyridine-2-carboxamide] yielded an IC50 (LCK) of 100 to 1000 nM, an IC50 (ITK) of 1000 to 10000 nM and an IC50 (SRC) of 100 to 1000 nM. The IC50 (EGFR) was greater than 10000 nM and the IC50 (BTK-WT) was 10 to 100 nM.

Work on `C[C@@H]1[C@H](NC(=O)N(C)C)CCCN1c1cnc(C(N)=O)c(Nc2ccc(N3CCN(C)CC3)cc2)c1` [Example D-127, 5-[(2R,3R)-3-[(dimethylcarbamoyl)amino]-2-methylpiperidin-1-yl]-3-{[4-(4-methylpiperazin-1-yl)phenyl]amino}pyridine-2-carboxamide] yielded an IC50 (LCK) of 1000 to 10000 nM, an IC50 (ITK) of 1000 to 10000 nM and an IC50 (SRC) of 1000 to 10000 nM. The IC50 (EGFR) was greater than 10000 nM and the IC50 (BTK-WT) was 100 to 1000 nM.

Compound `C[C@@H]1[C@H](NC(=O)N(C)C)CCCN1c1cnc(C(N)=O)c(Nc2cnn(C)c2)n1` [Example D-128, 5-[(2R,3R)-3-[(dimethylcarbamoyl)amino]-2-methylpiperidin-1-yl]-3-[(1-methyl-1H-pyrazol-4-yl)amino]pyrazine-2-carboxamide] has an IC50 (LCK) of 100 to 1000 nM, an IC50 (ITK) of 100 to 1000 nM and an IC50 (SRC) of 100 to 1000 nM. It also gave an IC50 (EGFR) of 1000 to 10000 nM and an IC50 (BTK-WT) of no more than 10 nM.

For `C[C@@H]1[C@H](NC(=O)c2ccc(C3CC3)cc2F)CCCN1c1cnc(C(N)=O)c(Nc2ccn(C)n2)n1` [Example D-129, 5-[(2R,3R)-3-(4-cyclopropyl-2-fluorobenzamido)-2-methylpiperidin-1-yl]-3-[(1-methyl-1H-pyrazol-3-yl)amino]pyrazine-2-carboxamide], the IC50 (LCK) was greater than 10000 nM, the IC50 (ITK) was greater than 10000 nM and the IC50 (SRC) was greater than 10000 nM. For the same compound, the IC50 (EGFR) was 1000 to 10000 nM and the IC50 (BTK-WT) was 100 to 1000 nM.

`C[C@@H]1[C@H](NC(=O)c2ccc(C3CC3)cc2F)CCCN1c1cnc(C(N)=O)c(Nc2ccc(S(=O)(=O)N3CCN(C)CC3)cc2)n1` [Example D-130, 5-[(2R,3R)-3-(4-cyclopropyl-2-fluorobenzamido)-2-methylpiperidin-1-yl]-3-({4-[(4-methylpiperazin-1-yl)sulfonyl]phenyl}amino)pyrazine-2-carboxamide] was tested, and the IC50 (LCK) was 1000 to 10000 nM, the IC50 (ITK) was 100 to 1000 nM and the IC50 (SRC) was 100 to 1000 nM. For the same compound, the IC50 (EGFR) was 1000 to 10000 nM and the IC50 (BTK-WT) was no more than 10 nM.

Work on `Cc1ccc(-c2cnc([C@@H]3CCCN(c4cnc(C(N)=O)c(Nc5cc(C)ns5)n4)[C@@H]3C)[nH]2)cc1` [Example D-131, 3-[(3-methyl-1,2-thiazol-5-yl)amino]-5-[(2R,3R)-2-methyl-3-[5-(4-methylphenyl)-1H-imidazol-2-yl]piperidin-1-yl]pyrazine-2-carboxamide] yielded an IC50 (LCK) of 100 to 1000 nM, an IC50 (ITK) of 1000 to 10000 nM and an IC50 (SRC) of 100 to 1000 nM. For the same compound, the IC50 (EGFR) was 100 to 1000 nM and the IC50 (BTK-WT) was 10 to 100 nM.

`C[C@@H]1[C@H](NC(=O)c2ccc(C3CC3)cc2F)CCCN1c1cnc(C(N)=O)c(Nc2ccc(CN3CCN(C)CC3)cn2)n1` [Example D-132, 5-[(2R,3R)-3-(4-cyclopropyl-2-fluorobenzamido)-2-methylpiperidin-1-yl]-3-({5-[(4-methylpiperazin-1-yl)methyl]pyridin-2-yl}amino)pyrazine-2-carboxamide] gave an IC50 (LCK) of 1000 to 10000 nM, an IC50 (ITK) of 1000 to 10000 nM and an IC50 (SRC) greater than 10000 nM. For the same compound, the IC50 (EGFR) was greater than 10000 nM and the IC50 (BTK-WT) was 10 to 100 nM.

With `C[C@@H]1[C@H](NC(=O)c2ccc(C3CC3)cc2F)CCCN1c1cnc(C(N)=O)c(Nc2ccc(S(C)(=O)=O)cc2)n1` [Example D-133, 5-[(2R,3R)-3-(4-cyclopropyl-2-fluorobenzamido)-2-methylpiperidin-1-yl]-3-[(4-methanesulfonylphenyl)amino]pyrazine-2-carboxamide] the IC50 (LCK) was 100 to 1000 nM, the IC50 (ITK) was 100 to 1000 nM and the IC50 (SRC) was 100 to 1000 nM. The IC50 (EGFR) was 1000 to 10000 nM and the IC50 (BTK-WT) was no more than 10 nM.

In the case of `C[C@@H]1[C@H](NC(=O)c2ccc(C3CC3)cc2F)CCCN1c1cnc(C(N)=O)c(Nc2ccc(C3(C)CCN(C4CCC4)CC3)cc2)n1` [Example D-134, 3-{[4-(1-cyclobutyl-4-methylpiperidin-4-yl)phenyl]amino}-5-[(2R,3R)-3-(4-cyclopropyl-2-fluorobenzamido)-2-methylpiperidin-1-yl]pyrazine-2-carboxamide], the IC50 (LCK) is reported as 10 to 100 nM, the IC50 (ITK) is reported as 10 to 100 nM and the IC50 (SRC) is reported as 10 to 100 nM. For the same compound, the IC50 (EGFR) was 100 to 1000 nM and the IC50 (BTK-WT) was no more than 10 nM.

Compound `C[C@@H]1[C@H](NC(=O)c2ccc(C3CC3)cc2)CCCN1c1cnc(C(N)=O)c(Nc2cnn(C)c2)n1` [Example D-135, 5-[(2R,3R)-3-(4-cyclopropylbenzamido)-2-methylpiperidin-1-yl]-3-[(1-methyl-1H-pyrazol-4-yl)amino]pyrazine-2-carboxamide] has an IC50 (LCK) of 100 to 1000 nM, an IC50 (ITK) of 100 to 1000 nM and an IC50 (SRC) of 100 to 1000 nM. The IC50 (EGFR) was 1000 to 10000 nM and the IC50 (BTK-WT) was no more than 10 nM.

`Cc1ccc(-c2cnc([C@H]3CCCN(c4cnc(C(N)=O)c(Nc5cc(C)ns5)n4)C3)[nH]2)cc1` [Example D-136, 3-[(3-methyl-1,2-thiazol-5-yl)amino]-5-[(3S)-3-[5-(4-methylphenyl)-1H-imidazol-2-yl]piperidin-1-yl]pyrazine-2-carboxamide] was tested, and the IC50 (LCK) was 100 to 1000 nM, the IC50 (ITK) was 1000 to 10000 nM and the IC50 (SRC) was 100 to 1000 nM. It also gave an IC50 (EGFR) of 100 to 1000 nM and an IC50 (BTK-WT) of 10 to 100 nM.

`Cc1ccc(-c2cnc([C@@H]3CCCN(c4cnc(C(N)=O)c(Nc5cc(C)ns5)n4)C3)[nH]2)cc1` [Example D-137, 3-[(3-methyl-1,2-thiazol-5-yl)amino]-5-[(3R)-3-[5-(4-methylphenyl)-1H-imidazol-2-yl]piperidin-1-yl]pyrazine-2-carboxamide] gave an IC50 (LCK) of 1000 to 10000 nM, an IC50 (ITK) greater than 10000 nM and an IC50 (SRC) of 1000 to 10000 nM. The IC50 (EGFR) was 1000 to 10000 nM and the IC50 (BTK-WT) was 10 to 100 nM.

Compound `C[C@@H]1[C@H](NC(=O)c2ccc(C3CC3)cc2F)CCCN1c1cnc(C(N)=O)c(Nc2ccc(C3(C)CCN(C4CC4)CC3)cc2)n1` [Example D-138, 5-[(2R,3R)-3-(4-cyclopropyl-2-fluorobenzamido)-2-methylpiperidin-1-yl]-3-{[4-(1-cyclopropyl-4-methylpiperidin-4-yl)phenyl]amino}pyrazine-2-carboxamide] has an IC50 (LCK) of 10 to 100 nM, an IC50 (ITK) of 100 to 1000 nM and an IC50 (SRC) of 100 to 1000 nM. It also gave an IC50 (EGFR) of 100 to 1000 nM and an IC50 (BTK-WT) of no more than 10 nM.

For `C[C@@H]1[C@H](NC(=O)c2ccc(C3CC3)cc2F)CCCN1c1cnc(C(N)=O)c(Nc2ccc(S(=O)(=O)N3CCCC3)cc2)n1` [Example D-139, 5-[(2R,3R)-3-(4-cyclopropyl-2-fluorobenzamido)-2-methylpiperidin-1-yl]-3-{[4-(pyrrolidine-1-sulfonyl)phenyl]amino}pyrazine-2-carboxamide], the IC50 (LCK) was greater than 10000 nM, the IC50 (ITK) was greater than 10000 nM and the IC50 (SRC) was greater than 10000 nM. For the same compound, the IC50 (EGFR) was 1000 to 10000 nM and the IC50 (BTK-WT) was no more than 10 nM.

In the case of `C[C@@H]1[C@H](NC(=O)c2ccc(C3CC3)cc2)CCCN1c1cnc(C(N)=O)c(Nc2cc(CN3CCCCC3)ns2)n1` [Example D-140, 5-[(2R,3R)-3-(4-cyclopropylbenzamido)-2-methylpiperidin-1-yl]-3-{[3-(piperidin-1-ylmethyl)-1,2-thiazol-5-yl]amino}pyrazine-2-carboxamide], the IC50 (LCK) is reported as 10 to 100 nM, the IC50 (ITK) is reported as 10 to 100 nM and the IC50 (SRC) is reported as 10 to 100 nM. For the same compound, the IC50 (EGFR) was 1000 to 10000 nM and the IC50 (BTK-WT) was no more than 10 nM.

Compound `CN1CCC(n2cc(Nc3nc(N4CCC[C@@H](n5ccc6cc(C7CC7)ccc6c5=O)C4)cnc3C(N)=O)cn2)CC1` [Example D-141, 5-[(3R)-3-(6-cyclopropyl-1-oxo-1,2-dihydroisoquinolin-2-yl)piperidin-1-yl]-3-{[1-(1-methylpiperidin-4-yl)-1H-pyrazol-4-yl]amino}pyrazine-2-carboxamide] has an IC50 (LCK) of 100 to 1000 nM, an IC50 (ITK) of 100 to 1000 nM and an IC50 (SRC) of 100 to 1000 nM. The IC50 (EGFR) was 1000 to 10000 nM and the IC50 (BTK-WT) was no more than 10 nM.
